Laboratory results taken from patent US20020081661A1 (Synaptic Pharmaceutical Corporation, priority 1992, published 2002).
Like-named read-outs stand apart in the source and are kept apart here.

Assays:
[1] = target: T1, rat 5-HT4 receptor S10-95 (CG-8) (Rattus norvegicus, UniProt Q62758); assay: [3H]GR113808 binding (saturation and displacement), COS-7 membranes, rat clone CG-8; design: two individual full length cDNA clones, S10-87 and S10-95, were isolated; expressed in transfected cells; host or cells: COS-7 (transient, DEAE-dextran); details: for effect on [3H]GR113808 binding: CG-8, concentrations up to 1 μM
Experimental: (§2) Membrane Preparation: Membranes were prepared from transiently transfected COS-7 cells which were grown to 100% confluence. The cells were washed twice with phosphate-buffered saline, scraped from the culture dishes into 5 ml of ice-cold phosphate-buffered saline, and centrifuged at 200×g for 5 min at 4′. The pellet was resuspended in 2.5 ml of ice-cold Tris buffer (20 mM Tris -HCl, pH 7.4 at 23°, 5 mM EDTA), and homogenized by a Wheaton tissue grinder. The lysate was subsequently centrifuged at 200×g for 5 min at 4° to pellet large fragments which were discarded. The supernatant was collected and centrifuged at 40,000×g for 20 min at 4°. The pellet resulting from this centrifugation was washed once in ice-cold Tris wash buffer and finally resuspended in a final buffer containing 50 mM Tris-HCl and 0.5 mM EDTA, pH 7.4 at 23°. Membrane preparations were kept on ice and utilized within two hr for the radioligand binding assays.
(§3) The binding profile of drugs in competition experiments was established using 10-12 concentrations of compound. Incubation times were 30 min for both saturation and displacement studies.

[2] = target: T2, rat 5-HT4 receptor S10-87 (CG-7) (Rattus norvegicus, UniProt Q62758); assay: [3H]GR113808 binding (saturation and displacement), COS-7 membranes, rat clone CG-7; design: two individual full length cDNA clones, S10-87 and S10-95, were isolated; expressed in transfected cells; host or cells: COS-7 (transient, DEAE-dextran); details: for effect on [3H]GR113808 binding: CG-7, concentrations up to 1 μM
Experimental: as §2, §3

[3] = target: T2, rat 5-HT4 receptor S10-87 (CG-7); assay: [3H]5-HT radioligand binding (saturation and displacement), membranes of Cos-7 cells transiently expressing rat S10-87 (CG-7)
Experimental: as §2
(§4) The binding profile of drugs in competition experiments was established using 7 concentrations of compound. Incubation times were 30 min for both saturation and displacement studies. […] Binding was initiated by the addition of 50 μl membrane homogenates (10-20 μg). The reaction was terminated by rapid filtration through presoaked (0.5% polyethyleneimine) filters using 48R Cell Brandel Harvester (Gaithersburg, Md.). Subsequently, filters were washed for 5 sec with ice cold buffer (50 mM Tris HCL, pH 7.4 at 4° C.), dried and placed into vials containing 2.5 ml of Readi-Safe (Beckman, Fullerton, Calif.), and radioactivity was measured using a Beckman LS 6500C liquid scintillation counter. […] Binding data were analyzed by computer-assisted nonlinear regression analysis (Accufit and Accucomp, Lundon Software, Chagrin Falls, Ohio).

[4] = target: T3, human 5-HT4 receptor S10-95 (CG-17) (Homo sapiens, UniProt Q13639); assay: [3H]5-HT displacement binding, human CG-17 clone; details: for activity at the CG-17 clone: [3H]5-HT displacement, up to concentration of 1 μM; for fold higher affinity for the human CG-17 clone: human CG-17 compared with rat clones
T3 construct: Isolation of the full length human S10-95 cDNA clone; expressed in transfected cells; host or cells: COS-7 (transient, DEAE-dextran)
Experimental: as §2, §4

[5] = target: T4, rat 5-HT4 (CG-8) receptor (Rattus norvegicus, UniProt Q62758); assay: cAMP formation in intact Cos-7 cells transiently expressing CG-8; format: cell-based; details: for agonist / antagonist character: CG-8, cAMP response; for I. A. (intrinsic activity): CG-8, maximum response normalized to 5-HT maximum = 1.0; for effect on responses to 5-HT: CG-8, 10 μM
T4 construct: two individual full length cDNA clones, S10-87 and S10-95, were isolated; expressed in transfected cells; host or cells: COS-7 (transient, DEAE-dextran)
Experimental: (§1) Measurement of cAMP Formation: The transiently transfected Cos-7 cells were incubated in Dulbecco's modified Eagle's medium, 5 mM theophylline, 10 mM Hepes (4-[2-Hydroxyethyl]-1-piperazineethanesulfonic acid), 10 μM pargyline, and/or appropriate concentrations of antagonists for 20 minutes at 37° C., 5% CO2. […] The media was aspirated and the reaction stopped by the addition of 100 mM HCl. The plates were stored at 4° C. for 15 minutes, centrifuged for 5 minutes, 500×g to pellet cellular debris, and the supernatant aliquotted and stored at −20° C. prior to assessment of cAMP formation by radioimmunoassay (cAMP Radioimmunoassay kit, Advanced Magnetics, Cambridge, Mass.). Radioactivity was quantitated using a Packard COBRA Auto Gamma Counter equipped with data reduction software. Functional data was fitted to a four parameter logistic equation to obtain response parameters (EC50, Emax, nH; Inplot, GraphPad, San Diego, Calif.).

[6] = target: T5, rat 5-HT4 (CG-7) receptor (Rattus norvegicus, UniProt Q62758); assay: cAMP formation in intact Cos-7 cells transiently expressing CG-7; format: cell-based; details: for agonist / antagonist character: CG-7, cAMP response; for I. A. (intrinsic activity): CG-7, maximum response normalized to 5-HT maximum = 1.0; for effect on responses to 5-HT: CG-7, 10 μM
T5 construct: two individual full length cDNA clones, S10-87 and S10-95, were isolated; expressed in transfected cells; host or cells: COS-7 (transient, DEAE-dextran)
Experimental: as §1

[7] = target: T1, rat 5-HT4 receptor S10-95 (CG-8); assay: biochemical
Experimental: For transient expression, Cos-7 cells were transfected by the DEAE-Dextran method, using 1 μg of DNA /10^6 cells (Warden, D. and H. V. Thorne, 1968).
Membrane Preparation: Membranes were prepared from transiently transfected COS-7 cells which were grown to 100% confluence. The cells were washed twice with phosphate-buffered saline, scraped from the culture dishes into 5 ml of ice-cold phosphate-buffered saline, and centrifuged at 200×g for 5 min at 4′. The pellet was resuspended in 2.5 ml of ice-cold Tris buffer (20 mM Tris -HCl, pH 7.4 at 23°, 5 mM EDTA), and homogenized by a Wheaton tissue grinder. The lysate was subsequently centrifuged at 200×g for 5 min at 4° to pellet large fragments which were discarded. The supernatant was collected and centrifuged at 40,000×g for 20 min at 4°. The pellet resulting from this centrifugation was washed once in ice-cold Tris wash buffer and finally resuspended in a final buffer containing 50 mM Tris-HCl and 0.5 mM EDTA, pH 7.4 at 23°. Membrane preparations were kept on ice and utilized within two hr for the radioligand binding assays. Protein concentrations were determined by the method of Bradford (1976) using bovine serum albumin as the standard.
The binding profile of drugs in competition experiments was established using 7 concentrations of compound. Incubation times were 30 min for both saturation and displacement studies. […] Binding was initiated by the addition of 50 μl membrane homogenates (10-20 μg). The reaction was terminated by rapid filtration through presoaked (0.5% polyethyleneimine) filters using 48R Cell Brandel Harvester (Gaithersburg, Md.). Subsequently, filters were washed for 5 sec with ice cold buffer (50 mM Tris HCL, pH 7.4 at 4° C.), dried and placed into vials containing 2.5 ml of Readi-Safe (Beckman, Fullerton, Calif.), and radioactivity was measured using a Beckman LS 6500C liquid scintillation counter. […] Binding data were analyzed by computer-assisted nonlinear regression analysis (Accufit and Accucomp, Lundon Software, Chagrin Falls, Ohio). […]

[8] = target: T6, 5-HT4 receptors, guinea pig brain tissue (Cavia porcellus, UniProt O70528); details: Waeber et al., 1993, Grossmann et al.; cited from earlier work
T6 construct: host or cells: guinea pig brain tissue

[9] = target: T7, 5-HT4 receptors, human brain (Homo sapiens, UniProt Q13639); details: Waeber et al. (1993); cited from earlier work
T7 construct: host or cells: human brain tissue

[10] = target: T3, human 5-HT4 receptor S10-95 (CG-17); assay: [3H]GR113808 saturation binding, human clone CG-17; details: human CG-17, [3H]GR113808 0.005-[…], preliminary; read-out: Kd (saturation analysis)
Experimental: as §2, §3

[11] = target: T8, 5-HT4 receptor, rat oesophagus (Rattus norvegicus, UniProt Q62758); details: Grossmann et al., 1993; cited from earlier work
T8 construct: host or cells: rat oesophagus

[12] = CG-8, 0.2-0.4 nM [3H]GR113808, single experiment, read-out: Affinity estimate K1
[13] = CG-7, 0.2-0.4 nM [3H]GR113808, single experiment, read-out: Affinity estimate K1
[14] = Affinity constants (Ki), CG-7, 10 nM [3H]5-HT, mean ± SEM, >1000 estimated from one point displacement at 1 uM
[15] = read-out: Ks (apparent dissociation constant of antagonist)
[16] = K1 (nM), CG-7, binding data using [3H]5-HT, Table 4
[17] = CG-8, stimulation of basal cAMP release, means ± S.E.M. of three experiments, read-out: EC50
[18] = CG-7, stimulation of basal cAMP release
[19] = CG-7, stimulation of basal cAMP release, means ± S.E.M. of three experiments, read-out: EC50
[20] = CG-8, stimulation of basal cAMP release

T1 sequence (Q62758 whole entry): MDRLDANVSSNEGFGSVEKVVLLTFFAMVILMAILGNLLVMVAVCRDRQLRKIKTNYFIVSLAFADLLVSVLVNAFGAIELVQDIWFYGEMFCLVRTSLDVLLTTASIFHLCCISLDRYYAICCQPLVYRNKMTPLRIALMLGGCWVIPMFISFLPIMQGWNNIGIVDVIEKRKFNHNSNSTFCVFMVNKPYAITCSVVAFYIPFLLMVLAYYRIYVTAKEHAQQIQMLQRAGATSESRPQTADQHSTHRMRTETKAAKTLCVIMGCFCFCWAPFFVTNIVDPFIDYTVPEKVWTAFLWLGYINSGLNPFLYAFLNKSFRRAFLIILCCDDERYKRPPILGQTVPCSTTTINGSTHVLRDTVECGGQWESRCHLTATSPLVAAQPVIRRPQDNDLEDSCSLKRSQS
T4 sequence (Q62758 whole entry): as above
T5 sequence (Q62758 1-387 isoform Q62758-2): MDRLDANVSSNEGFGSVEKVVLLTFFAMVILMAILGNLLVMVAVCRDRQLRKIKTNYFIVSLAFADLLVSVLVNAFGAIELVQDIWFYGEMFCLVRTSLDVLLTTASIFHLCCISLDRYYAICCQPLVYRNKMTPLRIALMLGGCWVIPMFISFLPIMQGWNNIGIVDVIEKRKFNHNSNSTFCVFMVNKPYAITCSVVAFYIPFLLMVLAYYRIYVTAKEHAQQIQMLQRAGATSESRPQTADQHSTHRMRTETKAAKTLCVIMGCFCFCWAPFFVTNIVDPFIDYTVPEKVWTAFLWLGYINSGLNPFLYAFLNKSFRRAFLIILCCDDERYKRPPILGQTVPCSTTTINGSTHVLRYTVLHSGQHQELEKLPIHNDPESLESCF
T2 sequence (Q62758 1-387 isoform Q62758-2): as above
T3 sequence (Q13639 whole entry): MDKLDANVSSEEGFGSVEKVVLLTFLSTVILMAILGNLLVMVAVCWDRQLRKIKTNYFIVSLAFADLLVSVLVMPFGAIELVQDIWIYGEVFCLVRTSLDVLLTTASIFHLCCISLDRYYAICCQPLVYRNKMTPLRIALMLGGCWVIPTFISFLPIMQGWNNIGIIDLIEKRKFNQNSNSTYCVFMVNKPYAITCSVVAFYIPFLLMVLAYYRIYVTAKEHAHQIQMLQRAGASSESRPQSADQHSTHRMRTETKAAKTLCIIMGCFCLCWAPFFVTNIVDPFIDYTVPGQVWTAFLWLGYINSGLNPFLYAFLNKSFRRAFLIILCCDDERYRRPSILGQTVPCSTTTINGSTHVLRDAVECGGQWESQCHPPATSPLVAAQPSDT
T8 sequence (Q62758 whole entry): as the sequence (Q62758 whole entry) above
T6 sequence (O70528 whole entry): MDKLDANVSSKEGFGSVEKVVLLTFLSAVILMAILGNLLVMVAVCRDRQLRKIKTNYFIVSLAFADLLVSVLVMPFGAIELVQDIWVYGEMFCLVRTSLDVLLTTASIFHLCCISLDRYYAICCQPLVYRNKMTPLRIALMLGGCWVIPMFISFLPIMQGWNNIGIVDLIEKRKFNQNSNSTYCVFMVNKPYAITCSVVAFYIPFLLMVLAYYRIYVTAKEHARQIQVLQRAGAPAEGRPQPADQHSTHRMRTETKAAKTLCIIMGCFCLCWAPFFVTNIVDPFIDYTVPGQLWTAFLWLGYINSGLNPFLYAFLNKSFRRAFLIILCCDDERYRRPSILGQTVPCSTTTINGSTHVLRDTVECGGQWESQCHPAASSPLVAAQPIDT
T7 sequence (Q13639 whole entry): as the sequence (Q13639 whole entry) above

## CCN(CC)C(=O)[C@@H]1C=C2c3cccc4[nH]cc(c34)C[C@H]2N(C)C1 [d-LSD]
[1]; [12]
  Ki: > 10 µM
[2]; [13]
  Ki: > 10 µM

## O=C(c1ccc(F)cc1)C1CCN(CCn2c(=O)[nH]c3ccccc3c2=O)CC1 [Ketanserin, ketanserin]
[1]
  effect on [3H]GR113808 binding: no effect
[2]
  effect on [3H]GR113808 binding: no effect
[3]
  Ki: > 1000 nM
[3]; [14]
  Ki: > 1000 nM
[4]
  activity at the CG-17 clone: inactive
[4]; read-out: Ki
  Ki: > 1 µM

## CN1[C@@H]2CC[C@H]1C[C@@H](OC(=O)c1c[nH]c3ccccc13)C2 [ICS 205930]
[1]; [12]
  Ki: 0.529 µM
[5]; CG-8
  fold lower affinity in the functional assay as compared to the binding experiments: approximately 6 fold
[5]
  agonist / antagonist character: silent antagonist
  I. A. (intrinsic activity): 0
[5]; [15]
  Kd: 0.607 ± 0.03 µM
[6]; CG-7
  fold lower affinity in the functional assay as compared to the binding experiments: ~10 fold
[6]
  agonist / antagonist character: silent antagonist
  I. A. (intrinsic activity): 0
[6]; [15]
  Kd: 0.962 ± 0.244 µM
[3]; [14]
  Ki: 115 ± 12 nM
[3]; [16]
  Ki: 115 ± 12 nM
[7]
  Ki: 0.138 ± 0.026 µM

## CNS(=O)(=O)Cc1ccc2[nH]cc(CCN(C)C)c2c1 [Sumatriptan, sumatriptan]
[1]
  effect on [3H]GR113808 binding: no effect
[2]
  effect on [3H]GR113808 binding: no effect
[3]
  Ki: > 1000 nM
[3]; [14]
  Ki: > 1000 nM
[4]
  activity at the CG-17 clone: inactive
[4]; read-out: Ki
  Ki: > 1 µM

## COc1cc(N)c(Cl)cc1C(=O)NC1CCN(CCCOc2ccc(F)cc2)CC1OC (centres unmarked) [Cisapride, cisapride]
[1]; [12]
  Ki: 0.084 µM
[1]; CG-8, [3H]GR113808
  BH (percentage of high affinity sites): 11%
  nH (Hill coefficient): nH = 0.83
[1]; CG-8, [3H]GR113808, read-out: KH (affinity for the high affinity state)
  Ki: 0.0027 µM
[1]; read-out: KL (affinity for the low affinity state), CG-8, [3H]GR113808
  Ki: 0.105 µM
[5]
  agonist / antagonist character: partial agonists
  I. A. (intrinsic activity): 1.4
[5]; [17]
  EC50: 0.413 ± 0.199 µM
[6]
  agonist / antagonist character: partial agonists
  I. A. (intrinsic activity): 1.2
[6]; [18]
  times less potent than 5-HT: about 10 fold
[6]; [19]
  EC50: 0.191 ± 0.026 µM
[3]; [14]
  Ki: 10.9 ± 0.3 nM
[3]; [16]
  Ki: 11 ± 0.3 nM

## O=C(CCCN1CCC2(CC1)C(=O)NCN2c1ccccc1)c1ccc(F)cc1 [spiperone]
[5]
  effect on responses to 5-HT: not affected
[6]
  effect on responses to 5-HT: not affected

## CSc1ccc2c(c1)C(N1CCN(C)CC1)Cc1ccccc1S2 (centres unmarked) [methiothepin]
[5]
  effect on responses to 5-HT: not affected
[6]
  effect on responses to 5-HT: not affected

## Cn1cc(C(=O)OCC2CCN(CCNS(C)(=O)=O)CC2)c2ccccc21 [[^3H]GR113808]
[8]
  Kd: 0.00013 to 0.0002 µM
[9]
  Kd: 0.00023 to 0.00037 µM
[10]
  Kd: 0.0002 µM

## NCCc1c[nH]c2ccc(O)cc12 [5-HT, serotonin]
[1]; CG-8, [3H]GR113808
  BH (percentage of high affinity sites): 24%
  nH (Hill coefficient): nH = 0.67
[5]; CG-8, 1 μM, single dose preliminary study
  stimulation of basal cAMP release: about 30 fold
[5]; CG-8, FIG. 10
  maximum cAMP release: 0.57±0.04 pmol/ml/10 min
[5]
  I. A. (intrinsic activity): 1.0
[2]; CG-7, [3H]GR113808
  BH (percentage of high affinity sites): 22%
  nH (Hill coefficient): nH = 0.62
[6]; CG-7, 1 μM, single dose preliminary study
  stimulation of basal cAMP release: about 30 fold
[6]; CG-7, FIG. 9
  maximum cAMP release: 0.42±0.03 pmol/ml/10 min
[6]
  I. A. (intrinsic activity): 1.0

## Cn1cc(C(=O)OCC2CCN(CCNS(C)(=O)=O)CC2)c2ccccc21 [GR113808]
[11]
  affinity from functional receptor assays: about 0.3 nM

## CCCN(CCC)C1CCc2cccc(O)c2C1 (centres unmarked) [8-OH-DPAT, 8-hydroxy-2-(di-n-propylamino)tetralin]
[1]
  effect on [3H]GR113808 binding: no effect
[2]
  effect on [3H]GR113808 binding: no effect
[3]
  Ki: > 1000 nM
[3]; [14]
  Ki: > 1000 nM
[4]
  Ki: > 1 µM
  activity at the CG-17 clone: inactive

## NCCc1c[nH]c2ccc(C(N)=O)cc12 [5-CT, 5-carboxyamidotryptamine]
[1]
  Ki: > 10 µM
[5]
  EC50: 1.41 µM
  I. A. (intrinsic activity): 1.2
[5]; [20]
  fold lower affinity than 5-HT: about 30 fold
[2]; [13]
  Ki: > 10 µM
[6]
  EC50: 5.57 µM
  I. A. (intrinsic activity): 0.85
[6]; [18]
  times less potent than 5-HT: ~200 fold
[3]; [14]
  Ki: > 1000 nM
[3]; [16]
  Ki: > 1000 nM
[3]; Kf values estimated, S10, [3H]5-HT displacement, low affinity compounds
  Ki: > 1000 nM
[4]
  Ki: > 10 µM

## COc1ccc2[nH]cc(CCN)c2c1 [5-MeOT, 5-methoxytryptamine]
[1]
  Ki: 0.518 µM
[1]; CG-8, [3H]GR113808
  nH (Hill coefficient): nH = 0.66
[5]
  EC50: 0.031 ± 0.013 µM
  I. A. (intrinsic activity): 1.0
[5]; [20]
  fold lower affinity than 5-HT: approximately equipotent
[2]; Affinity estimate K1, CG-7, 0.2-0.4 nM [3H]GR113808, single experiment
  Ki: 0.438 µM
[2]; CG-7, [3H]GR113808
  BH (percentage of high affinity sites): 17%
  nH (Hill coefficient): nH = 0.57
[2]; KH (affinity for the high affinity state), CG-7, [3H]GR113808
  Ki: 0.014 µM
[2]; read-out: KL (affinity for the low affinity state), CG-7, [3H]GR113808
  Ki: 0.658 µM
[6]
  EC50: 0.021 ± 0.006 µM
  I. A. (intrinsic activity): 1.0
[6]; [18]
  times less potent than 5-HT: approximately equipotent
[3]; [14]
  Ki: 27.5 ± 5 nM
[3]; [16]
  Ki: 27 ± 5 nM
[4]
  Ki: 0.071 µM
  fold higher affinity for the human CG-17 clone: ~5 fold
[4]; human CG-17 compared to the rat clones
  fold less potent at the human CG-17: approximately 3 fold

## CC(N)Cc1c[nH]c2ccc(O)cc12 (stereo not drawn) [α-Me-5-HT]
[1]; [12]
  Ki: 1.85 µM
[5]
  I. A. (intrinsic activity): 1.0
[5]; [20]
  fold lower affinity than 5-HT: approximately 20 fold
[5]; [17]
  EC50: 1.04 µM
[2]; [13]
  Ki: 2.25 µM
[6]
  I. A. (intrinsic activity): 0.90
[6]; [18]
  times less potent than 5-HT: about 10 fold
[6]; [19]
  EC50: 0.25 ± 0.091 µM
[4]; human CG-17, 10 nM [3H]5-HT, single experiment, >1,000 from one point displacement at 1 μM, read-out: Ki
  Ki: 0.0016 µM
[4]
  fold higher affinity for the human CG-17 clone: approximately 100 fold
